Measurements: US20260364186A1, “Chemical Conjugates, Compositions, and Methods of Preparation and Use Thereof” (Transfection Holdings Limited, priority 2022, published 2026)
“Also recorded” adds a separate entry of the source.

How the values were obtained:
[1] = tested on: NZM11 melanoma cancer cell line; assay: FACS uptake of BODIPY FL conjugates, 50 nM, 5 min (Example 1); assay type: cell-based, human
Procedure: FIG. 1. Conjugate compounds coupled to BODIPY FL were tested for uptake using 50 nM each conjugate and 5 minute incubation with HEM (human epidermal melanocytes) and melanoma cell line NZM11 (BRAF V600E mutant metastatic melanoma). Mean fluorescent intensities (MFI). For these tests, n=300-500, mean±SD. Results were from a single experiment done in triplicate. Cells were sorted by FACS.
Materials and methods: NZM11 is an adherent metastatic melanoma cell derived from a patient with a subcutaneous lesion on their mid back. This human metastatic melanoma is identified with code CBA-1398 from Cell bank Australia. […] Cells of NZM11 diluted in MEMα media and cells of HEMnDP (primary melanocyte cell line) diluted in media 254 were left to settle in 96-wells microplate for 48 hours. 10 μL of 10 mM stock solutions in DMSO from 138 and pantothenic acid/pantothenic acid derivatives coupled to BODIPY were diluted with HBSS to afford 100 nM solution. Then, 100 nM compounds and DMSO solutions were diluted 1:1 with MEMα media for NZM11 and media 254 for HEMnDP to afford 50 nM solutions. After the 48 hour settle time, media was removed from the cells and 200 μL of 50 nM media solutions were poured to each well and incubated for 5 minutes at 37 °C. […] The FACS results output represented the mean of the fluorescence intensities (in arbitrary units) measured for cells sorted in every sample

[2] = tested on: mouse embryonic fibroblasts MEF; assay: FACS uptake of BODIPY FL conjugates (Example 4); assay type: cell-based; settings: 200 nM, 5 min, S enantiomer vs R
Procedure: FIG. 4B: Conjugate compounds coupled to BODIPY FL were tested for uptake using 200 nM each conjugate and 5 minute incubation with mouse embryonic fibroblasts MEF. Mean fluorescent intensities (MFI). 1,000 cells were sorted by FACS.
Fibroblasts are ubiquitous mesenchymal cells that are thought to play important roles in wound repair and healing, and serve as reservoirs of multipotent progenitors capable of repopulating depleted cell compartments. Primary mouse embryonic fibroblast (MEF) cultures consist of highly heterogeneous populations of distinct cell types. Singhal, P. K., et al., 2016. MEF cells have a limited growth capacity and on prolonged passaging spontaneously immortalize at a low frequency. In contrast to transformation of primary MEF cells that requires the presence of two cooperating oncogenes, immortalised MEF cells can be transformed by a single oncogene (Ras) resulting in a loss of contact inhibition, anchorage-independent growth, and tumour formation in nude mice. Studies of MEF cells have played an important role in the elucidation of the molecular mechanisms underlying cellular immortalization, transformation, and tumorigenesis. Additionally, utilization of MEF cells disrupted for specific genes has provided a powerful tool to analyse the genetic regulation of these cellular processes. Sun and Taneja, 2007. […]

[3] = tested on: NZM011, NZM009, NZM012, NZM022 and NZM077 cells; assay: Flow cytometry uptake into metastatic melanoma lines (Example 11); assay type: cell-based, human; settings: 200 nM, 30 minutes, five cell lines
Procedure: FIG. 11: Uptake for compounds 124, 126, and 132 at 200 nM and 30 minute incubation with melanoma cell lines: NZM12 (NZM012) (BRAF V600E mutant metastatic melanoma, homozygous deletion CDKN2A and low invasive cell line), NZM77 (NZM077) (BRAF V600E mutant metastatic melanoma and missense NF1), NZM22 (NZM022) (BRAF G466A mutant metastatic melanoma, P53 241S/T mutant, NF1 non-frameshift insertion and PTEN epigenetic silencing). NZM9 (NZM009) (P53 179C/T mutant and homozygous silencing CDKN2A). NZM11 (NZM011) (BRAF V600E mutant metastatic melanoma and homozygous deletion CDKN2A), as positive control. Mean fluorescent intensities (MFI). 1,500-2,000 cells were obtained. Bars represent mean±SD. Results are from a single experiment done in triplicate. Cells were analysed by FACS.
Methods: For screening, NZM011, NZM009, NZM012, NZM022 and NZM077 cells were suspended at 250 cells per μL in MEMα media and 200 μL was dispensed into 96 well plates. The cells were left to settle for 24 hours for NZM011, NZM012 and NZM077 and 48 hours for NZM009 and NZM022 at 37 °C, 5% O2, 5% CO2. Before addition to the cells, 10 μL of 10 mM stock solutions in DMSO of compounds 124, 126, and 132 were diluted with 1% FBS MEMα media to give a 200 nM solution.
After the appropriate settle time, the media was removed from the 96 well plates and 200 μL of 200 nM conjugate solutions and DMSO control were dispensed to each well (in triplicate) and incubated for 30 minutes at 37 °C, 5% O2, 5% CO2. After 30 minutes, the media was removed and cells washed with PBS. Next, 100 μL of TrypLE trypsin (ThermoFisher Scientific) was added to each well and incubated for 5 minutes at 37 °C. After this, 150 μL of MEMα media (plus 1% FBS for NZM011, NZM012 and NZM077; plus 5% FBS for NZM009 and NZM022) were added. Cells were analysed by flow cytometry using a FACS biosort and FITC filter. Flow cytometry results represent the mean of the fluorescence intensities (in arbitrary units) measured for cells sorted in every sample.

Jurkat cells = assay: Flow cytometry time course of uptake (Example 12); assay type: cell-based, human; settings: 200 nM
Procedure: FIG. 12: Time course of uptake for compounds 124, 126, and 132 at 200 nM after 5, 30 or 60 minute incubation with Jurkat cells. Mean fluorescent intensities (MFI). 1,000 cells were sorted by FACS. Bars represent mean±SD. Results represents a single experiment done in triplicate.
Materials and methods: For this study, 7.7×10^5 Jurkat cells were centrifuged for 5 minutes at 2500 RPM. The supernatant was removed and the cells were diluted in RPMI media (supplemented with 1% FBS+1% penicillin-streptomycin) to 400 cells/μL. Next, 28 μL of 100 μM stock solutions from compound 124, 126, or 132 were diluted with 6972 μL of RPMI media (supplemented with 1% FBS+1% penicillin-streptomycin) to give a 400 nM solution. Following this, 250 μL of conjugate solutions (giving a 200 nM final concentration) and 250 μL of cell suspensions were then added to each well in a 96 well plate. In addition, 250 μL of media only was added to the DMSO control wells. Incubation was carried out for 5, 30 and 60 minutes at 37 °C in triplicate wells for each compound and time point.
After incubation, cells were centrifuged for 1.5 minutes at 5000 RCF. Supernatant was removed and the cell pellet re-suspended in 200 μL fresh RPMI media, transferred to 96 well-plate and each cell suspension analysed by flow cytometry. Flow cytometry results represent the mean of the fluorescence intensities (in arbitrary units) measured for cells sorted in every sample.

[4] = tested on: NZM11 (BRAF V600E mutant metastatic melanoma) cells; assay: Sulforhodamine B (SRB) assay of viability / proliferation, auranofin conjugates (Example 8); assay type: cell-based, human; settings: 200 μM, 48 hours
Procedure: FIG. 8: Effect of 136 and 137 (auranofin conjugates) on viability of NZM11 melanoma cells. Cells were incubated with 136 and 137 at 10 μM final concentration and kept at 37 °C for 48 hours. Pantothenic acid (PA), CJ-15,801, and biotin were tested at 200 μM final concentration. […] Two batches of auranofin were tested at 10 μM final concentration.
FIG. 9: The viability data from FIG. 8 was normalised to the treatment plate and DMSO control and plotted as a percentage of cell growth. Individual data points represent technical replicates. Curve indicates non-linear regression slope, which allows determination of IC50 values.
Materials and methods: NZM11 cells were cultured in MEMα media with an initial count of 1020 cells/μL. The cells were then diluted to get 25 cells per μL and 200 μL of this suspension (5000 cells per well), dispensed into 96 well plates and left to settle for 24 hours. 10 mM stock solutions of 136, 137, and auranofin were diluted with 1% FBS MEMα media to give 10 nM, 30 nM, 100 nM, 300 nM, 1 μM, 3 μM, 10 μM, 30 μM and 100 μM solutions. After 24 hours the media was removed from the 96 well plates. To individual wells 200 μL of each dilution were dispensed in triplicate for three groups (136, 137, and auranofin): 1% FBS MEMα media only (DMSO control), 10 nM, 30 nM, 100 nM, 300 nM, 1 μM, 3 μM, 10 μM, 30 μM and 100 μM. The cells were incubated at 37 °C, 5% 02 and 5% CO2 for 48 hours.
In order to test the potency of 136 and 137, the IC50 values were calculated for these auranofin conjugates. For analysis of the treatment plate (Tz) a SRB assay was utilised. For this assay, 50 μL of 50% (w/v) ice-cold trichloroacetic acid (TCA) was added to each well. To achieve this, 5 g of TCA was made up to 10 mL with milliQ H2O. This was cooled on ice. Incubation was carried out for 1 hour at 4 °C to fix cells. TCA and media were removed from cells. Five milliQ washes were carried out and the plate was left to air dry. Next, 50 μL of 0.4% SRB solution (prepared in 1% acetic acid) was added to each well and incubated for 10 minutes at room temperature. The SRB solution was removed and five milliQ washes were carried out. Then, 100 μL of 10 mM Tris solution was added to each well, and the dye was solubilised. Absorbance at 515 nm was read on plate reader. Data was normalized to Tz plate, as per NCI60 screening method (https://dtp.cancer.gov/discovery_development/nci-60/methodology.htm).

glioblastoma cells = assay: Protein content after 48 hour incubation (Example 9); assay type: cell-based, human; settings: 5, 25 and 100 μM
Procedure: FIGS. 10A-10B: Protein content of glioblastoma cells after 48 hour incubation with compound 138 or PA at 5, 25 and 100 μM final concentration. To indicates protein levels at the beginning of the test. Control indicates protein levels in cells which were incubated for 48 hours without exposure to 138 or PA.
(§1) Glioblastoma cells were used to determine viability and growth by measurement of protein levels. Protein content of glioblastoma cells was determined after 48 hour incubation with compound 138 or PA at 5, 25 and 100 μM final concentration. For To, protein levels were determined at the start of the test (before addition of test compounds). For the control, protein levels were determined for cells incubated for 48 hours in the absence of the test compounds. Astrocytes were used as a non-cancer cell line control. U87: this cell line has epithelial morphology that was isolated from malignant gliomas from a patient, likely with glioblastoma. SF188: this glioblastoma cell line was derived from the left temporal lobe tumour of a patient. U251: this cell line expresses epidermal growth factor receptor (EGFR) receptors, for inhibition studies. LN229: This cell line has a mutation on TP53; Simple; p.Pro98Leu. LN18: This cell line is negative for glial fibrillary acidic proteins and S100 (S-100) protein. […] GUVW cells were also utilised.

astrocytes = assay: as above; assay type: cell-based, human; settings: 5, 25 and 100 μM
Procedure: as §1

melanoma cell lines = settings: previous results, read-out: concentration showing inhibition of 50% of the population; cited from earlier work

CC1=CC(C)=[N+]2C1=Cc1ccc(CCCn3cc(CCNC(=O)/C=C/NC(=O)[C@@H](O)C(C)(C)CO)nn3)n1[B-]2(F)F [Compound 126, (E)-N-((((3-[4,4-Difluoro-5,7-dimethyl-4-bora-3a,4a-diaza-s-indacene-3-yl]propyl)-1H-1,2,3-triazol-4-yl)ethylamino)-3-oxoprop-1-enyl)-2,4-dihydroxy-3,3-dimethylbutanamide]
mean intensity compared to the 124 conjugate [1]: 25% | lower intensities than the R derivatives [2]: around 50% | times less uptake than 124 [3]: 5-12 times | time of highest uptake (Jurkat cells): 60 min | times lower than 124 uptake (Jurkat cells; 60 minutes): 4 times | uptake increase compared to DMSO control (Jurkat cells; 60 minutes): three times higher

CC(C)(CO)[C@@H](O)C(=O)N/C=C/C(=O)O [Compound 138, (R,E)-3-(2,4-Dihydroxy-3,3-dimethylbutanamido)acrylic acid]
viability / cell proliferation [4]: little to no effect on cell proliferation | protein content / protein levels (glioblastoma cells): little to no effect on protein levels | protein content / protein levels (astrocytes): little to no effect on protein levels

CC[P](CC)(CC)=[Au][S][C@@H]1O[C@H](COC(C)=O)[C@@H](OC(C)=O)[C@H](OC(C)=O)[C@H]1OC(C)=O [auranofin]
IC50 (melanoma cell lines): ≤ 500 nM

CC(C)(CO)[C@@H](O)C(=O)NCCC(=O)O [pantothenic acid]
protein content / protein levels (glioblastoma cells): comparable content of proteins with the control; also recorded: little to no effect on protein levels | protein content / protein levels (astrocytes): comparable content of proteins with the control; also recorded: little to no effect on protein levels
